# Data: US20050019826A1 (priority 2000, published 2005)
# Entries after “also recorded” stand apart in the source; their conditions may differ. Ends that are not written are not given here.
# Assays:
# KDR [1] = experiment: Displacement of 125I-VEGF165 binding to CHO-KDR transfected cells by V1 derivatives; settings: for peptide efficiency after change of C-terminal arginine: compared with V1; for Efficiency (% Emax): relative to V1 = 100
# Excerpt: FIG. 11. […] Experimental conditions are indicated in the legend of FIG. 10.
# FIG. 12. […] Experimental conditions are indicated in the legend of FIG. 10.
# (§1) Experimental conditions are indicated in the legend of FIG. 10.
# FIG. 17. […] Experimental conditions are indicated in the legend of FIG. 10.
# KDR [2] = experiment: Competition assay of 125I-VEGF binding to CHO-KDR cells; parameters: block of VEGF binding to CHO-KDR cells: dose or concentration left out as unconfirmed; settings: for inhibitory effect on VEGF binding to KDR: fixed peptide concentration 2.1×10^−4M, heparin 1.8 μg/ml
# Experimental: FIG. 1. […] (B) Effect of heparin. […] Data correspond to the mean and standard deviations of triplicate samples.
# FIG. 4. […] Data represent the means and standard deviations of triplicate samples.
# FIG. 5. […] Data represent the mean and standard deviations of triplicate samples.
# (§2) Competition assay of binding to CHO-KDR cells. CHO-KDR cells were seeded in 24-well plates at a density of 5×10^5 cells/well. After 24 h, subconfluent plates were transferred at 4° C., and all subsequent operations were done at 4° C. […] After 3 h, cells were washed five times with binding buffer and solubilized by the addition of 0.5 M NaOH. The amount of radioactivity bound to the cells was counted in a gamma counter (LKB 1261 Multigamma). The receptor affinity and the number of binding sites per cell were determined by Scatchard's analysis (Scatchard, 1986).
# KDR [3] = experiment: ELISA of the phage-displayed peptide binding to CHO-KDR cells; settings: clones selected by anti-VEGF antibody binding, 10^12 pfu/ml
# Experimental: FIG. 2. […] Clones selected by KDR binding (10^13 pfu/ml) (A) or by anti-VEGF antibody binding (10^12 pfu/ml) (B) were compared with M13 phage particles (control). Results are representative of three independent assays.
# Exponentially growing CHO-KDR cells were seeded in 96-well microtiter plates at 7×10^4 cells/well and left overnight at 37° C. Cells were fixed with paraformaldehyde (4% in PBS) for 15 min at room temperature and washed with PBS. Wells were then filled with PBS-Glycine 0.2%, kept for 15 min at room temperature and then washed with PBS. Phage particles (10^12 or 10^13/ml) were added to each well and incubated 2 h at room temperature. Wells were washed with PBS and the amount of bound phage was detected with peroxidase-conjugated anti-M13 phage serum (Pharmacia Biotech, Uppsala, Sweden).
# [4] = tested on: Calf pulmonary artery endothelial cells (CPAE); experiment: CPAE cell proliferation assay (BrdU incorporation); type: cell-based; settings: 2.1×10^−4M synthetic peptide, 24 h
# Experimental: FIG. 3. The anti-VEGF antibody blocks CPAE cell growth. CPAE cell growth was measured in cultures supplemented with various concentrations of anti-VEGF antibody and compared with untreated cultures. Data represent means and standard deviations of proliferation inhibition for triplicate samples and are representative of two independent experiments.
# FIG. 6. V1 inhibits CPAE cell proliferation. CPAE cell growth was measured after 24h of incubation in presence of synthetic peptides selected by antibody binding (A) or by KDR binding (B) and compared with untreated cultures. Data represent means and standard deviations of proliferation inhibition for triplicates and are representative of three independent experiments.
# (§3) Cell proliferation assay. To test the anti-VEGF antibody neutralizing effect, CPAE cells were plated into 96-well tissue culture plates at a density of 500 cells/well. After 24 h, various concentrations of anti-VEGF antibody were added. The cells were cultured for an additional day and cell proliferation was measured using the Cell proliferation ELISA kit from Boerhinger (Indianapolis, Ind.). Cells were incubated with BrdU for 4 h at 37° C., and the incorporation of BrdU in newly synthetized DNA was quantified by immunoassay as described by the manufacturer. To investigate the peptide effect, after 24 h of CPAE cell growth, 2.1×10^−4M synthetic peptides were added daily to the culture medium. Cell proliferation was assessed after 24 h, 48 h or 72 h as described above. […] Cells were trypsinized and counted after 5 days using a Coulter counter.
# [5] = tested on: Human Umbilical Artery Endothelial Cells (HUAE); experiment: HUAE cell proliferation induced by VEGF; type: cell-based; settings: 2 ng/ml VEGF, peptide daily, 5 days
# Experimental: (§4) FIG. 7. […] Cells were counted after 5 days. Data are means of proliferation inhibition percentages for triplicate samples.
# as §3
# VEGF-R2 on HUV-EC Cells = experiment: 125I-VEGF165 binding to HUV-EC cells (Scatchard); parameters: species or system human; settings: V1 40 μg/ml
# Excerpt: as §1
# (see FIGS. 16A, B and C).
# [6] = tested on: 125I-VEGF-receptor complexes (VEGF-R2, NP1) on HUV-EC cells; experiment: Cross linking of 125I VEGF165 to HUV-EC cells; type: binding, human; settings: V1 2.4×10^−4M and 4.8×10^−4M, 125I VEGF165 160 pM
# Excerpt: FIG. 19. […] 1: Total binding. […] 3: V1, (2.4×10^−4M). 4: V1, (4.8×10^−4M).
# NIH 3T3 fibroblasts = experiment: NIH3T3 fibroblast proliferation; type: cell-based; settings: 24 h
# Experimental: FIG. 8. V1 acts specifically on endothelial cells. CPAE and NIH 3T3 fibroblasts were cultured with or without V1 peptide, and the changes in cell proliferation were measured after 24 h. Data represent the means and standard deviations of proliferation inhibition percentages for triplicate samples, and similar results were obtained in two independent experiments.
# as §3
# KDR [7] = target: T1, KDR (Homo sapiens, UniProt P35968); experiment: HUAE cell proliferation induced by KDR anti-idiotypic antibodies (AIA); type: cell-based; settings: 100 ng/ml KDR anti-idiotypic antibodies, peptide daily, 5 days
# T1 construct: endogenous in cells; host or cells: HUAE cells
# T1 sequence (P35968 20-1356): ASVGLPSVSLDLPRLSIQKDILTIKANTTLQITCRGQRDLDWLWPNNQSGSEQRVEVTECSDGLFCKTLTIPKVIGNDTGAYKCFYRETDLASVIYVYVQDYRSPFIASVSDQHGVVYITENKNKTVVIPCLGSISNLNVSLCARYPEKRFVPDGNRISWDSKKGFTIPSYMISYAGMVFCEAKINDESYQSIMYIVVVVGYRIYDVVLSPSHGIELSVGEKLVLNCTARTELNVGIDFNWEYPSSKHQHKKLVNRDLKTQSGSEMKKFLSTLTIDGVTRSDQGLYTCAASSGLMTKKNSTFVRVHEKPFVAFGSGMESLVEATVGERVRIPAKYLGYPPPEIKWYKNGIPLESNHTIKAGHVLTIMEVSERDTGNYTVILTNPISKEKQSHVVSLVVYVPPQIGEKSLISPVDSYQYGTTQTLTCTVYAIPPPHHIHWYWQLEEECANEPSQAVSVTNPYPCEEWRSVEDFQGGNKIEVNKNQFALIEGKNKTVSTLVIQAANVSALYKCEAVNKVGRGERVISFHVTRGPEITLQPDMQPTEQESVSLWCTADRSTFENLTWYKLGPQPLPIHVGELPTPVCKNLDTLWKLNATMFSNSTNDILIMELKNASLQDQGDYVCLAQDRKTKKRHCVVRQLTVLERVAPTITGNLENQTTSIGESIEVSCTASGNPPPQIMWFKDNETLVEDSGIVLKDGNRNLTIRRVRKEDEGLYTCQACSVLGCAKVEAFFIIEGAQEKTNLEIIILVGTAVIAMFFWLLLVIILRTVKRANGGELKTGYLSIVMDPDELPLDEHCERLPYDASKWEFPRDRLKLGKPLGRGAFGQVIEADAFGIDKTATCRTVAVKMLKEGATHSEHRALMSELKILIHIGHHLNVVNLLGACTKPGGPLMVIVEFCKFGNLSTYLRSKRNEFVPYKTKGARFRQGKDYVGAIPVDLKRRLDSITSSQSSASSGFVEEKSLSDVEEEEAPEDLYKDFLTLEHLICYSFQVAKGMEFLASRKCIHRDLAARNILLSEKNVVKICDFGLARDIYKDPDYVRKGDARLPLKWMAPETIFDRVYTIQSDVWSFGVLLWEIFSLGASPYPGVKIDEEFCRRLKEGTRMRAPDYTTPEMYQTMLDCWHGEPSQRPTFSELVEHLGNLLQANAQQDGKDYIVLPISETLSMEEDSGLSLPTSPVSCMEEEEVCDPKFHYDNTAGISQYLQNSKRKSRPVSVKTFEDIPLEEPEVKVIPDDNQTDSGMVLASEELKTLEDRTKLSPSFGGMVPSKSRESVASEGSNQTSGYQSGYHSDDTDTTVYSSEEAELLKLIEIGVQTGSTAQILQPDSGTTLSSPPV
# Experimental: as §4, §3
# [8] = tested on: VEGF-induced corneal angiogenesis; experiment: Rabbit corneal pocket assay; type: in vivo, New Zealand rabbit; settings: day 12; for effect on VEGF-induced corneal angiogenic response: implant 2 pmol VEGF + 30 nmol peptide; for neovascularization by peptide compared with vehicle alone: implant 30 nmol peptide, absence of VEGF
# Experimental: FIG. 9. V1 inhibits corneal angiogenesis in vivo.
# Rabbit corneal pocket assay. […] These implants were inserted in New Zealand rabbit (Elevage du Trottis, Esperce, France) corneal stroma 2 mm away from the limbus (Favard et al, 1991). Neovascularization was assessed on day 12 by direct examination with a slit lamp and scored according to a 4 grade scale (grade 1: less than 1 mm long neovessels, grade 2: 1 mm long neovessels, grade 3: 1 to 2 mm long neovessels, grade 4: neovessels extending to the implant). Means and standard deviations were determined on 8 implant groups for each condition.
# [9] = tested on: Human umbilical vein endothelial cell (HUVEC); experiment: VEGF165 induced HUVEC proliferation; type: cell-based; settings: V1 400 μg/ml, various VEGF165 concentrations, 96 hours
# Experimental: FIG. 13. Effect of V1 (400 μg/ml) VEGF165 induced HUVEC proliferation. Various concentrations of VEGF165 were added during 96 hours.
# The inhibitory effect of V1 on Human umbilical vein endothelial cell (HUVEC) in primary culture.
# [10] = target: T2, recombinant KDR expressed at the membrane surface of CHO-KDR cells (UniProt P35968 20-1356, limits assumed); experiment: displacement of 125I-VEGF165 from CHO-KDR transfected cells
# T2 construct: whole, on cells; also called VEGFR-2; VEGF-R2
# T2 sequence (P35968 20-1356 limits assumed): as the sequence (P35968 20-1356) above
# Experimental: as §2, with “5×10⁵” for “5×10^5”
# [11] = heparin various amounts, PlGF 50 ng/ml
molecule,measurement,setting,value
"AAWLPPK [A9, V1 analogue, C-terminal arginine substituted by lysine]",peptide efficiency after change of C-terminal arginine,KDR [1],also reduced the peptide efficiency
AAWLPPR [A2],Efficiency (% Emax),KDR [1],61 % Emax
ATALPP [A10],peptide efficiency after change of C-terminal arginine,KDR [1],significantly reduced the peptide efficiency
ATALPPR [A3],Efficiency (% Emax),KDR [1],70 % Emax
ATWAPPR [A4],Efficiency (% Emax),KDR [1],31 % Emax
ATWLAPR [A5],Efficiency (% Emax),KDR [1],65 % Emax
ATWLPAR [A6],Efficiency (% Emax),KDR [1],84 % Emax
ATWLPPA [A7],activity of alanine-substituted analogues in displacement of 125I-VEGF165,KDR [1]; AlaScan,totally devoid of activity
same,Efficiency (% Emax),KDR [1],0 % Emax
"ATWLPPR [V1, ATWLPPR]",block of VEGF binding to CHO-KDR cells,KDR [2],nearly block VEGF binding
same,inhibitory effect on VEGF binding to KDR,KDR [2],showed an inhibitory effect
same,IC50,"KDR [2]; read-out: IC50 for inhibition of VEGF binding to CHO-KDR cells, estimated",80 µM
same,ELISA signal of phage clone binding to CHO-KDR cells,KDR [3],best reactivities
same,reduction of CPAE cell proliferation,[4],60%
same,effect on binding and affinity of 125I VEGF165 to VR2 on transfected CHO cells,"KDR [1]; 50 μg/ml V1, Scatchard",inhibited the binding; also recorded: affinity is lowered
same,IC50,"KDR [1]; 125I-VEGF 7 pM, heparin 1 μg/ml, 3 hours +4° C., read-out: CI50 (the source's name)",18.8 µM
same,effect on heparin agonistic effect on VEGF165 binding,KDR [1]; V1 50 μg/ml,inhibited this heparin agonistic effect
same,Efficiency (% Emax),KDR [1],100 % Emax
same,effect on VEGF-induced proliferation of human endothelial cells,[5],suppressed the mitogenic activity of VEGF in a dose dependent manner
same,effect on VEGF binding to HUV-EC receptors,VEGF-R2 on HUV-EC Cells,inhibited only the VEGF binding to high affinity receptors
same,labeling of 125I-VEGF-receptor complexes (240-260 kDa and 160-170 kDa),[6],decreased
same,effect on NIH 3T3 fibroblast proliferation,NIH 3T3 fibroblasts,did not modify the proliferation
same,effect on AIA-dependent cell proliferation,KDR [7],could suppress the AIA-dependent cell proliferation
same,effect on VEGF-induced corneal angiogenic response,[8],totally abolished
same,neovascularization by peptide compared with vehicle alone,[8],did not improve the generation of new blood vessels
same,effect on VEGF-induced HUVEC proliferation,[9],inhibited by V1 in a non competitive manner
ILDNYKL [V5],effect on VEGF binding to CHO-KDR cells,"KDR [2]; various concentrations, same conditions as V1",did not modify VEGF binding
same,effect on VEGF-induced proliferation of human endothelial cells,[5],no inhibitory effect
same,effect on VEGF-induced corneal angiogenic response,[8],not modified
same,neovascularization by peptide compared with vehicle alone,[8],did not improve the generation of new blood vessels
LPPNPTK [V6],inhibitory effect on VEGF binding to KDR,KDR [2],did not affect the binding of VEGF to KDR; also recorded: no effect on VEGF binding to KDR
same,ELISA signal of phage clone binding to CHO-KDR cells,KDR [3],best reactivities
same,reduction of CPAE cell proliferation,[4],significantly inhibited the proliferation of endothelial cells
SLPAHAR [K4],inhibitory effect on VEGF binding to KDR,KDR [2],could partially inhibit VEGF binding to KDR
same,reduction of CPAE cell proliferation,[4],minor effect on endothelial growth
heparin [reference compound],optimal heparin concentration for increasing VEGF binding,KDR [2],1.8 µg/mL
same,effect on VEGF binding to CHO-KDR cells,KDR [2]; [11],increase the binding of VEGF
PlGF: placenta growth factor (R & D Systems) (protein) AVPPQQWALSAGNGSSEVEVVPFQEVWGRSYCRALERLVDVVSEYPSEVEHMFSPSCVSLLRCTGCCGDENLHCVPVETANVTMQLLKIRSGDRPSYVELTFSQHVRCECRPLREKMKPERCGDAVPRR,effect on VEGF binding to CHO-KDR cells,KDR [2]; [11],not modifying VEGF binding
ATWLPPA (AlaScan analogue of ATWLPPR) [V1 analogue A7 (Ala7-substituted analogue)],Efficiency (% Emax),[10],0 % Emax
